Test results published in patent US20230312605A1, “PYRROLO[2,1-F][1,2,4]TRIAZINES AND PREPARATION AND USES THEREOF” (BioSplice Therapeutics, Inc., priority 2021, published 2023).

The molecules below were run against recombinant DYRK1A kinase (Homo sapiens (Human), UniProt Q13627) (assay: DYRK1A kinase assay (Ser/Thr 18 peptide Z-lyte FRET assay)). Conditions: recombinant DYRK1A 0.25 µg/mL, ATP 15 µM, Ser/Thr peptide 18 4 µM, one hour at room temperature; table head prints EC50, method says IC50.
Format: biochemical
Procedure, shortened: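 Z-lyte FRET format: 1 h room-temperature reaction of 15 µM ATP, 4 µM Ser/Thr 18 peptide and 0.25 µg/mL recombinant human DYRK1A, in duplicate over 11 compound concentrations up to 10 µM. IC50 was derived by non-linear regression of percent phosphorylation calculated from coumarin/fluorescein emission ratios.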

| Molecule | EC50 [nM] |
| --- | --- |
| O[C@H]1CC[C@@H](Nc2ncc3c(-c4cnc5ncccc5c4)ccn3n2)CC1 [Compound 1535, cis-4-((5-(1.8-Naphthyridin-3-yl)pyrrolo[2,1-f][1,2,4]triazin-2-yl)amino) cyclohexan-1-ol] | 7 |
| Cc1nc2ncc(-c3ccn4nc(N[C@H]5CC[C@@H](OC(F)(F)F)CC5)ncc34)nc2n1CC(F)F [Compound 1970, 5-(1-(2,2-Difluoroethyl)-2-methyl-1H-imidazo[4,5-b]pyrazin-6-yl)-N-(cis-4-(trifluoromethoxy)cyclohexyl)pyrrolo[2,1-f][1,2,4]triazin-2-amine] | 7 |
| CCO[C@H]1C[C@@H](Nc2ncc3c(-c4cnc5nccn5c4)ccn3n2)C1 [Compound 242, N-(cis-3-Ethoxycyclobutyl)-5-(imidazo[1,2-a]pyrimidin-6-yl)pyrrolo[2,1-f] [1,2,4]triazin-2-amine] | 5 |
| Cc1nc2ccc(-c3ccn4nc(N[C@H]5CC[C@@H](C(=O)N(C)C)CC5)ncc34)nc2n1CC(F)F [Compound 1845, cis-4-((5-(3-(2,2-Difluoroethyl)-2-methyl-3H-imidazo[4,5-b]pyridin-5-yl)pyrrolo[2,1-f][1,2,4]triazin-2-yl)amino)-N,N-dimethylcyclohexane-1-carboxamide] | 4 |
| Cc1nc2ccc(-c3ccn4nc(N[C@@H]5CCCOC5)ncc34)nc2n1CC(F)F [Compound 1863, (R)-5-(3-(2,2-Difluoroethyl)-2-methyl-3H-imidazo[4,5-b]pyridin-5-yl)-N-(tetrahydro-2H-pyran-3-yl)pyrrolo[2,1-f][1,2,4]triazin-2-amine] | 8 |
| Cc1nc2ccc(-c3ccn4nc(N[C@H]5CC[C@@H](OC(F)(F)F)CC5)ncc34)nc2n1CC(F)F [Compound 1792, 5-(3-(2,2-Difluoroethyl)-2-methyl-3H-imidazo[4,5-b]pyridin-5-yl)-N-(cis-4-(trifluoromethoxy)cyclohexyl)pyrrolo[2,1-f][1,2,4]triazin-2-amine] | 26 |
| O[C@H]1CC[C@@H](Nc2ncc3c(-c4ccc5ncccc5c4)ccn3n2)CC1 [Compound 1322, cis-4-((5-(Quinolin-6-yl)pyrrolo[2,1-f][1,2,4]triazin-2-yl)amino)cyclohexan-1-ol] | 393 |
| CCO[C@H]1CC[C@@H](Nc2ncc3c(-c4cnc5nccn5c4)ccn3n2)CC1 [Compound 263, N-(cis-4-Ethoxycyclohexyl)-5-(imidazo[1,2-a]pyrimidin-6-yl)pyrrolo[2,1-f][1,2,4]triazin-2-amine] | 6 |
| Cc1nc2ccc(-c3ccn4nc(NC5CCOCC5)ncc34)nc2n1CC(F)F [Compound 1132, 5-(3-(2,2-Difluoroethyl)-2-methyl-3H-imidazo[4,5-b]pyridin-5-yl)-N-(tetrahydro-2H-pyran-4-yl)pyrrolo[2,1-f][1,2,4]triazin-2-amine] | 5 |
| Cc1nc2ccc(-c3ccn4nc(N[C@H]5CN(C)C[C@H]5F)ncc34)nc2n1CC(F)F [Compound 1903, 5-(3-(2,2-Difluoroethyl)-2-methyl-3H-imidazo[4,5-b]pyridin-5-yl)-N-((3S,4R)-4-fluoro-1-methylpyrrolidin-3-yl)pyrrolo[2,1-f][1,2,4]triazin-2-amine] | 12 |
| Cc1nc2ccc(-c3ccn4nc(N[C@H]5CC[C@@H](CN6CCN(C)CC6)CC5)ncc34)nc2n1CC(F)F [Compound 1841, 5-(3-(2,2-Difluoroethyl)-2-methyl-3H-imidazo[4,5-b]pyridin-5-yl)-N-(cis-4-((4-methylpiperazin-1-yl)methyl)cyclohexyl)pyrrolo[2,1-f][1,2,4]triazin-2-amine] | 6 |
| CCO[C@H]1C[C@@H](Nc2ncc3c(-c4cnc5ncccc5c4)ccn3n2)C1 [Compound 1520, N-(cis-3-Ethoxycyclobutyl)-5-(1,8-naphthyridin-3-yl)pyrrolo[2,1-f][1,2,4] triazin-2-amine] | 963 |
| Cc1nc2ccc(-c3ccn4nc(NC5CCC(F)(F)CC5)ncc34)nc2n1CC(C)(C)O [Compound 1870, 1-(5-(2-((4,4-Difluorocyclohexyl)amino)pyrrolo[2,1-f][1,2,4]triazin-5-yl)-2-methyl-3H-imidazo[4,5-b]pyridin-3-yl)-2-methylpropan-2-ol] | 78 |
| CCO[C@H]1CC[C@@H](Nc2ncc3c(-c4cnc5ncccc5c4)ccn3n2)CC1 [Compound 1541] | 3 |
| CO[C@H]1C[C@@H](Nc2ncc3c(-c4cnc5nccn5c4)ccn3n2)C1 [Compound 239, 5-(Imidazo[1,2-a]pyrimidin-6-yl)-N-(cis-3-methoxycyclobutyl)pyrrolo[2,1-f] [1,2,4]triazin-2-amine] | 6 |
| CC(C)(F)CNc1ncc2c(-c3ccc4nccnc4c3)ccn2n1 [Compound 1352, N-(2-Fluoro-2-methylpropyl)-5-(quinoxalin-6-yl)pyrrolo[2,1-f][1,2,4]triazin-2-amine] | 27 |
| CN1CCC(Nc2ncc3c(-c4ccc5nccn5c4)ccn3n2)CC1 [Compound 66, 5-(Imidazo[1,2-a]pyridin-6-yl)-N-(1-methylpiperidin-4-yl)pyrrolo[2,1-f] [1,2,4]triazin-2-amine] | 264 |

| Molecule | EC50 [nM] |
| --- | --- |
| FC(F)(F)CNc1ncc2c(-c3cnc4nccn4c3)ccn2n1 [Compound 218, 5-(Imidazo[1,2-a]pyrimidin-6-yl)-N-(2,2,2-trifluoroethyl)pyrrolo[2,1-f] [1,2,4]triazin-2-amine] | 13 |
| Cc1nc2ccc(-c3ccn4nc(N[C@@H]5CN(C6COC6)C[C@@H]5F)ncc34)nc2n1CC(F)F [Compound 1945, 5-(3-(2,2-Difluoroethyl)-2-methyl-3H-imidazo[4,5-b]pyridin-5-yl)-N-((3R,4S)-4-fluoro-1-(oxetan-3-yl)pyrrolidin-3-yl)pyrrolo [2,1-f][1,2,4]triazin-2-amine] | 1 |
| Cc1nc2ccc(-c3ccn4nc(N[C@@H]5CCN(C)C[C@H]5F)ncc34)nc2n1CC(F)F [Compound 1854] | 8 |
| COC[C@H]1C[C@H](Nc2ncc3c(-c4ccc5nccnc5c4)ccn3n2)C1 [Compound 1377, N-(trans-3-(Methoxymethyl)cyclobutyl)-5-(quinoxalin-6-yl)pyrrolo[2,1-f] [1,2,4]triazin-2-amine] | 8 |
| Cc1nc2ccc(-c3ccn4nc(N[C@H]5CN(C)C[C@@H]5F)ncc34)nc2n1CC(F)F [Compound 1901, 5-(3-(2,2-Difluoroethyl)-2-methyl-3H-imidazo[4,5-b]pyridin-5-yl)-N-((3S,4S)-4-fluoro-1-methylpyrrolidin-3-yl)pyrrolo [2,1-f] [1,2,4]triazin-2-amine] | 4 |
| Cc1nc2ncc(-c3ccn4nc(N[C@@H]5CCN(C)C[C@@H]5F)ncc34)cc2n1CC(F)F [Compound 1884, 5-(1-(2,2-Difluoroethyl)-2-methyl-1H-imidazo[4,5-b]pyridin-6-yl)-N-((3S,4R)-3-fluoro-1-methylpiperidin-4-yl)pyrrolo[2,1-f][1,2,4]triazin-2-amine] | 7 |
| COCCO[C@H]1CC[C@@H](Nc2ncc3c(-c4cnc5ncccc5c4)ccn3n2)CC1 [Compound 1543, N-(cis-4-(2-Methoxyethoxy)cyclohexyl)-5-(1,8-naphthyridin-3-yl)pyrrolo [2,1-f][1,2,4]triazin-2-amine] | 2 |
| 1-(4-((5-(1-(2,2-Difluoroethyl)-2-methyl-1H-imidazo[4,5-b]pyridin-6-yl)pyrrolo[2, 1-f] [1,2,4]triazin-2-yl)amino)piperidin- 1-yl)ethan-1 -one [Compound 1910] | 4 |
| CCn1c(C)nc2ccc(-c3ccn4nc(NCC(C)(C)F)ncc34)nc21 [Compound 926, 5-(3-Ethyl-2-methyl-3H-imidazo[4,5-b]pyridin-5-yl)-N-(2-fluoro-2-methylpropyl)pyrrolo[2,1-f][1,2,4]triazin-2-amine] | 27 |
| CC(=O)N1C[C@@H](F)[C@@H](Nc2ncc3c(-c4ccc5nc(C)n(CC(F)F)c5n4)ccn3n2)C1 [Compound 1940, 1-((3S,4R)-3-((5-(3-(2,2-Difluoroethyl)-2-methyl-3H-imidazo[4,5-b]pyridin-5-yl)pyrrolo[2,1-f] [1,2,4]triazin-2-yl)amino)-4-fluoropyrrolidin-1-yl)ethan-1-one] | 7 |
| Cc1nc2ccc(-c3ccn4nc(NC5CCNCC5)ncc34)nc2n1CC(F)F [Compound 1916, 5-(3-(2,2-difluoroethyl)-2-methyl-3H-imidazo[4,5-b]pyridin-5-yl)-N-(piperidin-4-yl)pyrrolo[2,1-f][1,2,4]triazin-2-amine] | 5 |
| CC(=O)N1CC[C@@H](Nc2ncc3c(-c4ccc5nc(C)n(CC(F)F)c5n4)ccn3n2)[C@@H](F)C1 [Compound 1951, 1-((3S,4R)-4-((5-(3-(2,2-Difluoroethyl)-2-methyl-3H-imidazo[4,5-b]pyridin-5-yl)pyrrolo[2,1-f] [1,2,4]triazin-2-yl)amino)-3-fluoropiperidin-1-yl)ethan-1-one] | 5 |
| Cc1nc2ccc(-c3ccn4nc(NCC(C)(C)O)ncc34)nc2n1CC(F)F [Compound 1833, 1-((5-(3-(2,2-Difluoroethyl)-2-methyl-3H-imidazo[4,5-b]pyridin-5-yl)pyrrolo[2,1-f][1,2,4]triazin-2-yl)amino)-2-methylpropan-2-ol] | 8 |
| FC1(F)CC(Nc2ncc3c(-c4cnc5nccn5c4)ccn3n2)C1 [Compound 236, N-(3,3-Difluorocyclobutyl)-5-(imidazo[1,2-a]pyrimidin-6-yl)pyrrolo[2,1-f] [1,2,4]triazin-2-amine] | 9 |
| C[C@@H](Nc1ncc2c(-c3cnc4nccn4c3)ccn2n1)C(F)(F)F [Compound 219, (R)-5-(Imidazo[1,2-a]pyrimidin-6-yl)-N-(1,1,1-trifluoropropan-2-yl)pyrrolo [2,1-f][1,2,4]triazin-2-amine] | 14 |
| Cc1nc2ncc(-c3ccn4nc(N[C@H]5CC[C@@H](OC(F)F)CC5)ncc34)cc2n1CC(F)F [Compound 687] | 2 |
